Earlier results on 2 molecules are cited in patent EP4670741A1 (priority 2023, dated 2024).

Broadly, the IC50 is the point on the concentration scale where inhibition reaches its midpoint.

In series [1] the test system is various cancer cell lines. The following applies: read-out: IC50 values; 140 cell lines derived from various tumor types; majority of tested cancer cells.
The next series addresses T1, Topoisomerase I (Homo sapiens, UniProt P11387).
T1 sequence (P11387 1-765): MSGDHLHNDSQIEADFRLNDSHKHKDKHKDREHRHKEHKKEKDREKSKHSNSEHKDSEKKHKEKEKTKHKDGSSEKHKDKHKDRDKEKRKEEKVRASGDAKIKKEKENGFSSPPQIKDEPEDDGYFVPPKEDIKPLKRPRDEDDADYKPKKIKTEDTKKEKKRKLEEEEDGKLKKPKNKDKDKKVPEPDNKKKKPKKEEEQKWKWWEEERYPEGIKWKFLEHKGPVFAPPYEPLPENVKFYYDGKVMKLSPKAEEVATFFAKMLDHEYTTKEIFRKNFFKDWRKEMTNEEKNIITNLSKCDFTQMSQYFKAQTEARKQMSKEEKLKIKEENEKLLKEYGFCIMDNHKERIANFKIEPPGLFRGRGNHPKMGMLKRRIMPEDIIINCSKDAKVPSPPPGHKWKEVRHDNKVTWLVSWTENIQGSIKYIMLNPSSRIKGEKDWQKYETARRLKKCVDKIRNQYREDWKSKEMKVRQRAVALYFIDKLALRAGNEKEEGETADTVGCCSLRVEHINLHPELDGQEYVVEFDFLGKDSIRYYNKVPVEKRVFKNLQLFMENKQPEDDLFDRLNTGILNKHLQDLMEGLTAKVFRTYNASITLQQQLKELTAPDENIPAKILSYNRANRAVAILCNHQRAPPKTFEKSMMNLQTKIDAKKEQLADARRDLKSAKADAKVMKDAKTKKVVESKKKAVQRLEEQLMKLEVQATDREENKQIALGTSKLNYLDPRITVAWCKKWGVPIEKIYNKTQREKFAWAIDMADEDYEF
As to conditions: Topoisomerase I inhibitor.

Turning to `CC[C@@]1(O)C(=O)OCc2c1cc1n(c2=O)Cc2cc3cc4c(cc3nc2-1)OCO4` [FL118], the IC50 in series [1] is less than 100 nM.

For the molecule `CC[C@@]1(O)C(=O)OCc2c1cc1n(c2=O)Cc2c-1nc1cc(F)c(C)c3c1c2[C@@H](NC(=O)CO)CC3` [Dxd], the IC50 at Topoisomerase I is 310 nM.
